In patent publication US20100029657A1, “Bridged, Bicyclic Heterocyclic or Spiro Bicyclic Heterocyclic Derivatives of Pyrazolo[1, 5-A]Pyrimidines, Methods for Preparation and Uses Thereof” (Wyeth, priority 2008, published 2010):

Molecular target: T1, Flag/GST-tagged recombinant human B-Raf (Homo sapiens, UniProt P15056)
T1 construct: Flag; GST; made in house; host or cells: Sf9 insect cells (B-Raf); E. coli (MEK1-GST)
Assay: B-Raf kinase assay (phosphorylation of GST-MEK1, phospho-MEK1 antibody/Europium detection)
Format: biochemical
Conditions: B-Raf IC50 Data for compounds of Formula A; read-out: Mean IC50
Procedure: B-Raf1 Kinase Assay Procedure: B-Raf-1 is used to phosphorylate GST-MEK1.
• 1. Assay Dilution Buffer (ADB): 20 mM MOPS, pH 7.2, 25 mM β-glycerol phosphate, 5 mM EGTA, 1 mM sodium orthovanadate, 1 mM dithiothreitol, 0.01% Triton X-100. • 2. Magnesium/ATP Cocktail: ADB solution (minus Triton X-100) plus 200 μM cold ATP and 40 mM magnesium chloride. • 4. Active Kinase: Active B-Raf: Used at 0.2 nM per assay point. • 5. […] TBST—Tris (50 mM, pH 7.5), NaCl (150 mM), Tween-20 (0.05%) • 7. Anti-GST Ab (GE) • 8. Anti pMEK Ab (Upstate) • 9. Anti-rabbit Ab/Europium conjugate (Wallac).
B-Raf Assay Procedure: • 1. Added 25 μL of ADB containing B-Raf and Mek per assay (i.e. per well of a 96 well plate) • 2. Added 25 μL of 0.2 mM ATP and 40 mM magnesium chloride in Magnesuium/ATP Cocktail. • 3. Incubated for 45 minutes at RT with occasional shaking. • 4. Transferred this mixture to an anti-GST Ab coated 96 well plate (Nunc Immunosorb plates coated o/n with a-GST. Plate freshly washed 3×with TBS-T before use. • 5. Incubated o/n at […] in cold room. • 6. Washed 3× with TBST, ed Anti-Phospho MEK1 (1:1000, dilution depended upon lot) • 7. Incubated for 60 minutes at RT in a shaking incubator • 8. Washed 3× with TBST, add Anti-rabbit Ab/Europium conjugate (Wallac) (1:500, dilution depended upon lot) • 9. Incubated for 60 minutes at RT on a platform shaker. • 10. Washed plate 3× with TBS-T • 11. Added 100 μL of Wallac Delfia Enhancement Solution and agitated for 10 minutes. • 12. Read plates in Wallac Victor model Plate Reader. • 13.
The % inhibition was determined for each compound concentration.

T1 sequence (P15056 whole entry): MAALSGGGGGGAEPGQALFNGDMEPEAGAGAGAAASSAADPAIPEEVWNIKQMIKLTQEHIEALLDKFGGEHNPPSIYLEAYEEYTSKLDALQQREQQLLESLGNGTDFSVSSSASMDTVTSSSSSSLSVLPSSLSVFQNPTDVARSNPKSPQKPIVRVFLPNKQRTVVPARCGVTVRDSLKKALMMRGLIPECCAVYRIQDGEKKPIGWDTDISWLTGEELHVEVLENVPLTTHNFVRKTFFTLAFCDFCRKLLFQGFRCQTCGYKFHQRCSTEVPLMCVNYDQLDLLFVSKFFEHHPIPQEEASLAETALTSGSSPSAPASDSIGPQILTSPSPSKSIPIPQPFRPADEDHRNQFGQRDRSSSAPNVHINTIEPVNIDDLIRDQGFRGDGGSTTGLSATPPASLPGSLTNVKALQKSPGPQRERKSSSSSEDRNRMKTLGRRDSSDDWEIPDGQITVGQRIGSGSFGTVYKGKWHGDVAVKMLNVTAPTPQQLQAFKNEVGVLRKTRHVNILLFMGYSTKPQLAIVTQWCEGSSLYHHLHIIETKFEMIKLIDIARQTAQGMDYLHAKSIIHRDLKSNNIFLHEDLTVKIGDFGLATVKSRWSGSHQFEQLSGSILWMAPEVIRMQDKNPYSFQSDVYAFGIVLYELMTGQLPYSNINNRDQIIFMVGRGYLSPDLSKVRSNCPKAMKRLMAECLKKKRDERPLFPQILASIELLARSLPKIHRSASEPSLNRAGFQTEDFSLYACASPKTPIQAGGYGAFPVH

| IC50 | SMILES |
| --- | --- |
| 0.6 nM | Cc1cc(N2C[C@@H]3C[C@H]2CN3)ccc1-c1ccnc2c(-c3cccc4[nH]ncc34)c(-c3ccncc3)nn12 [Example 44, 7-(4-((1S,4S)-2,5-Diazabicyclo[2.2.1]heptan-2-yl)-2-methylphenyl)-3-(1H-indazol-4-yl)-2-(pyridin-4-yl)pyrazolo[1,5-a]pyrimidine] |
| < 0.3 nM | Cc1cc(N2C[C@@H]3C[C@H]2CN3C)ccc1-c1ccnc2c(-c3cccc4[nH]ncc34)c(-c3ccncc3)nn12 [Example 45, 3-(1H-Indazol-4-yl)-7-(2-methyl-4-((1S,4S)-5-methyl-2,5-diazabicyclo[2.2.1]heptan-2-yl)phenyl)-2-(pyridin-4-yl)pyrazolo[1,5-a]pyrimidine] |
| 3.2 nM | Fc1ccc(-c2ccnc3c(-c4cccc5[nH]ncc45)c(-c4ccncc4)nn23)c(N2C[C@@H]3C[C@H]2CN3)c1 [Example 46, 7-(2-((1S,4S)-2,5-Diazabicyclo[2.2.1]heptan-2-yl)-4-fluorophenyl)-3-(1H-indazol-4-yl)-2-(pyridin-4-yl)pyrazolo[1,5-a]pyrimidine] |
| 0.8 nM | CN1C[C@@H]2C[C@H]1CN2c1cc(F)ccc1-c1ccnc2c(-c3cccc4[nH]ncc34)c(-c3ccncc3)nn12 [Example 47, 7-(4-Fluoro-2-((1S,4S)-5-methyl-2,5-diazabicyclo[2.2.1]heptan-2-yl)phenyl)-3-(1H-indazol-4-yl)-2-(pyridin-4-yl)pyrazolo[1,5-a]pyrimidine] |
| > 1000 nM | COc1cc(-c2c(-c3ccncc3)nn3c(-c4ccc(F)cc4N4C[C@@H]5C[C@H]4CN5C(=O)OC(C)(C)C)ccnc23)ccc1Cl [Example 48, (1S,4S)-tert-Butyl 5-(2-(3-(4-chloro-3-methoxyphenyl)-2-(pyridin-4-yl)pyrazolo[1,5-a]pyrimidin-7-yl)-5-fluorophenyl)-2,5-diazabicyclo[2.2.1]-heptane-2-carboxylate] |
| 255 nM | COc1cc(-c2c(-c3ccncc3)nn3c(-c4ccc(F)cc4N4C[C@@H]5C[C@H]4CN5)ccnc23)ccc1Cl [Example 49, 7-(2-((1S,4S)-2,5-Diazabicyclo[2.2.1]heptan-2-yl)-4-fluorophenyl)-3-(4-chloro-3-methoxyphenyl)-2-(pyridin-4-yl)pyrazolo[1,5-a]pyrimidine] |
| > 1000 nM | COc1cc(-c2c(-c3ccncc3)nn3c(-c4ccc(F)cc4N4C[C@@H]5C[C@H]4CN5C)ccnc23)ccc1Cl [Example 50, 3-(4-Chloro-3-methoxyphenyl)-7-(4-fluoro-2-((1S,4S)-5-methyl-2,5-diazabicyclo[2.2.1]heptan-2-yl)phenyl)-2-(pyridin-4-yl)pyrazolo[1,5-a]pyrimidine] |
| 0.8 nM | c1cc(-c2c(-c3ccncc3)nn3c(-c4ccc(N5C[C@@H]6C[C@H]5CN6)cc4)ccnc23)c2cn[nH]c2c1 [Example 51, 7-(4-((1S,4S)-2,5-Diazabicyclo[2.2.1]heptan-2-yl)phenyl)-3-(1H-indazol-4-yl)-(pyridin-4-yl)pyrazolo[1,5-a]pyrimidine] |
| < 0.3 nM | Fc1cc(N2C[C@@H]3C[C@H]2CN3)ccc1-c1ccnc2c(-c3cccc4[nH]ncc34)c(-c3ccncc3)nn12 [Example 52, 7-(4-((1S,4S)-2,5-Diazabicyclo[2.2.1]heptan-2-yl)-2-fluorophenyl)-3-(1H-indazol-4-yl)-2-(pyridin-4-yl)pyrazolo[1,5-a]pyrimidine] |
| < 0.3 nM | CN1C[C@@H]2C[C@H]1CN2c1ccc(-c2ccnc3c(-c4cccc5[nH]ncc45)c(-c4ccncc4)nn23)c(F)c1 [Example 53, 7-(2-Fluoro-4-((1S,4S)-5-methyl-2,5-diazabicyclo[2.2.1]heptan-2-yl)phenyl)-3-(1H-indazol-4-yl)-2-(pyridin-4-yl)pyrazolo[1,5-a]pyrimidine] |
| 150 nM | CN1C[C@@H]2C[C@H]1CN2c1ccc(-c2ccnc3c(-c4ccc(F)c(O)c4)c(-c4ccncc4)nn23)cc1 [Example 54, 2-fluoro-5-(7-(4-((1S,4S)-5-methyl-2,5-diazabicyclo[2.2.1]heptan-2-yl)phenyl)-2-(pyridin-4-yl)pyrazolo[1,5-a]pyrimidin-3-yl)phenol] |
